Patent US5272151A, “Aminoacyl and oligopeptidyl derivatives of allopurinol exhibiting immunostimulatory activity, and pharmaceutical formulations containing these substances” (Sigma-Tau Industrie Farmaceutiche Riunite S.p.A., priority 1991, dated 1993)

Key:
[1] = system: mouse peritoneal exudate cells (PECs); test: In vitro-ex vivo phagocytic activity of mouse peritoneal exudate cells (PECs); conditions: for % Phagocytic cells: % of cells that had phagocytosed relative to potential phagocytes in PECs; for % Phagocytic cells / SRBC phagocytosed / SRBC per phagocyte: 25 mg/kg daily i.p. day -5 through day -1; for SRBC phagocytosed: average number of SRBC phagocytosed by 100 potential phagocytes; for SRBC per phagocyte: average number of SRBC phagocytosed per phagocyte
Procedure: In vitro-ex vivo effects of ST 689 and ST 789 on phagocytic activity of mouse peritoneal exudate cells (PECs).
Male B6 D2 F1 mice (Charles River, Italy), 6 weeks old, in experimental groups of 5 animals, were treated with the above substances i.p. at daily doses of 25 mg/kg from day -5 through day -1 relative to the day the PECs were sampled (day 0). The experimental procedure followed those described in [1] and [2]; briefly, the animals in each group were asphyxiated with CO2, the peritoneal cavities repeatedly washed, and the PECs recovered from each experimental group pooled and standardised to 4×10^6 cells/mL. Aliquots (250 μL) of phagocyte suspension were added to equal volumes of 0.4% SRBC that had been appropriately opsonised with hyperimmune serum. The samples, prepared in duplicate, were incubated for 1 h and then osmotically shocked to eliminate non-phagocytosed erythrocytes. After adjusting the osmolarity to normal values, the phagocytes were centrifuged and differentially stained. Microscopic counts of cells with phagocytic capabilities and of phagocytosed SRBC in fields of 200 cells were performed in triplicate. The results are expressed as % phagocytic cells, the average number of SRBC phagocytosed per phagocyte, and the total number of SRBC phagocytosed per 100 phagocytes.

[2] = Weight survey of rats in the IL-2 test (Test 5); format: in vivo, rat; conditions: Fisher rats; 25 mg/kg daily i.p. day -5 through day -1
Procedure: Male Fisher rats (Charles River, Italy), 3 months old, in experimental groups of 5 animals, were treated with the substances at daily dosages of 25 mg/kg from day -5 through day -1 relative to the day the spleens were sampled (day 0). The experimental procedure employed was that reported in [1]. To suspensions of splenocytes, prepared in RPMI 1640 with 10% FCS+1×10^-5 M β-mercaptoethanol and standardised to a concentration of 1×10^7 cells/mL, were added equal volumes of ConA at a concentration of 18 μg/mL/well. After incubating for 48 h at 37° C. in the presence of 5% CO2 the samples were centrifuged and the supernates collected. Serial dilutions of the supernates were added to CTLL-2 cells (a line of T-cells requiring IL-2 for growth) standardised at 5×10^4 cells/mL. Following an overnight incubation, the samples were labelled with ^3 H--TdR (0.5 μCi/well)for 6 h, then the cells were collected on filters using a cell harvester, and counted (cpm) using a β-counter. The results are expressed in units of IL-2, comparing the counts in the samples to a standard curve prepared with purified IL-2 . . . ls1.

P. mirabilis = test: Protective effect in experimentally-infected immunosuppressed mice (P. mirabilis); format: in vivo; conditions: for % Mortality, P. mirabilis: cyclophosphamide-immunodepressed CD1 mice, 25 mg/kg/d i.p. day -5 through day -1, challenge day 0
From the text: (§1) Evaluation of the protective effects of ST 689 and ST 789 in experimentally-infected immunosuppressed mice.
(§2) Male CDl mice (Charles River, Italy), 6-10 weeks old, were used in experimental groups of 9-20 animals. Systemic infection in the mice was achieved by intrapcritoncal inoculation of a pathogenic species of Klebsiclla (K. oxytoca), Proteus (P. mirabilis), Serratia (S. marcescens),and Hscherichia (E. coli). Eighteen-hour broth cultures were used to prepare infectious inocula that were either sublethal (Proteus) or which corresponded to an LD30 (Serratia) and an LD10 (Escherichia, Klebsiella). The bacterial challenge, inoculated i.p. in 0.5 mL of 5% gastric mucin, was designed to cause the death of animals immunodepressed with cyclophosphamide (administered i.p. in 0.2 mL of sterile physiological solution at a dosage of 100 mg/kg) 5 days prior to infection. The compounds were administered i.p. at daily doses of 25 mg/kg from day -5 to day -1 with respect to the day of bacterial inoculation (day 0). The results are expressed as % mortality and were statistically analysed using Fisher's test (Biostatistics in Pharmacology, vol. 2, Pergamon Press).

E. coli = test: Protective effect in experimentally-infected immunosuppressed mice (E. coli); format: in vivo; conditions: cyclophosphamide-immunodepressed CD1 mice; 25 mg/kg/d i.p. day -5 through day -1; challenge day 0
From the text: as §1, §2

[3] = system: plaque-forming cells (PFC) in the spleen of mice immunised with sheep red blood cells (SRBC); test: Production of primary antibodies (Jerne test) in the spleen of mice immunised with SRBC; format: in vivo; conditions: for PFC/10^6 cells (x ± S.E.) / PFC/spleen (x ± S.E.): 25 mg/kg/d i.p. from day -3 through day 3, SRBC immunisation day 0, B6D2F1 mice
Procedure: The effects of ST 689 and ST 789 on the production of primary antibodies (Jerne test) in the spleen of mice immunised with sheep red blood cells (SRBC).
Male hybrid B6 D2 F1 mice (Charles River, Italy), 7-8 weeks old, were used in experimental groups of 6 animals each. In this test, each animal was examined individually.
The compounds were administered intraperitoneally at a daily dose of 25 mg/kg from day -3 to day +3, where day 0 was the day of immunisation. The experimental procedure employed is described in Jerne, N. K. et al., Transpl. Rev., 18:30 (1974). Animals were immunised by i.p. administration of a suspension of SRBC (1×10^8 cells/mouse in 0.2 mL of PBS buffer). Five days following this treatment, the animals were killed and their spleens sterilely removed. The splenocytes were suspended at a concentration of 1×10^7 cells/ml, and 0.1 mL of this splenocyte suspension was mixed with 2 mL of warm Hank's agar medium +0.2 mL of 10% SRBC in PBS buffer and incubated in a Petri dish for 60 min at 37° C. (the samples were tested in triplicate). Complement (2 mL of guinea pig serum diluted 1:10 with Tris buffer) was added, and the Petri dishes incubated for 30 min at 37° C. In the presence of complement the cells secreted anti-SRBC antibodies, which evoked a haemolytic reaction. Such a reaction is indicative of lytic plaques in the samples contained in the Petri dishes.
The results are expressed as: […]
a) number of plaque-forming cells (PFC) in a population of 1×10^6cells;
b) number of PFC in intact spleens.
The values obtained were analysed using Dunnett's test (Biostatistics in Pharmacology, vol. 2, Pergamon Press) to ascertain the statistical significance of differences between the treated and control animal groups.

[4] = Body and spleen weight of rats in the chemotaxis test (Test 3); format: in vivo, rat; conditions: Fisher 344 rats; 25 mg/kg/d i.p. day -5 through day -1
Procedure: Inbred male Fisher 344 rats (Charles River, Italy), ca. 6 months old, were used in experimental groups of 5 animals. Test animals received the compounds at dosage of 25 mg/kg daily from day -5 through day -1 relative to the day of blood sampling (day 0). The experimental procedure employed is described in Cates, L. K. et al., Modified Boyden chamber method of measuring polymorphonuclear leukocyte chemotaxis, in Leukocyte chemotaxis, Raven Press, New York, N.Y., 1978, p. 67.

K. oxytoca = test: Protective effect in experimentally-infected immunosuppressed mice (K. oxytoca); format: in vivo; conditions: for % Mortality, K. oxytoca: cyclophosphamide-immunodepressed CD1 mice, 25 mg/kg/d i.p. day -5 through day -1, challenge day 0
From the text: as §1, §2

[5] = immunodepressed mice, 25 mg/kg/d i.p.

SMILES	Effect on the phagocytic capabilities of PECs, in words ([1]; 25 mg/kg daily i.p.)	% Phagocytic cells [1] [%]	SRBC phagocytosed [1]	SRBC per phagocyte [1]	Body weight [2] [g]	Spleen weight [2] [mg]	% Mortality, P. mirabilis (P. mirabilis)	Protective activity in Proteus infection, in words (P. mirabilis; [5])	% Mortality, E. coli (E. coli) [%]	PFC/10^6 cells (x ± S.E.) [3] [PFC/10^6 cells]	PFC/spleen (x ± S.E.) [3] [PFC/spleen]	Activity in terms of the number of PFC per spleen, in words ([3]; 25 mg/kg/d i.p., increase not statistically significant with respect to the control)	Body wt [4] [g]	Spleen wt [4] [mg]	% Mortality, K. oxytoca (K. oxytoca) [%]	Protective activity in Klebsiella infection, in words (K. oxytoca; [5])
O=c1[nH]cnc2c1cnn2CCCCCO [ST 689, 1,5-dihydro-1-(5-hydroxypentyl)-4H-pyrazolo-[3,4-d]-pyrimidin-4-one]	extremely positive effect	42.5 ± 0.5	229.5 ± 34.5	5.40 ± 0.90	271.6 ± 4.76	511.0 ± 22.35	10%	equal to that of ST 789	40	303 ± 47	64839 ± 15985	more active than ST 789	358.0 ± 9.49	591.4 ± 17.13	10	equal to that of ST 789
N=C(N)NCCC[C@H](NC(=O)OCCCCCn1cnc2c(=O)[nH]cnc21)C(=O)O [ST 789, N-alfa-5-(hypoxanthin-9-yl)-pentyloxycarbonylarginine, reference compound]	–	31.5 ± 0.5	152.5 ± 9.5	4.85 ± 0.25	275.0 ± 3.76	539.2 ± 12.11	11,1%	–	20	220 ± 30	35011 ± 4761	–	345.6 ± 8.84	610.0 ± 22.00	10	–
